35 compounds from ChEMBL document CHEMBL1125924, “Thienotriazolodiazepines as platelet-activating factor antagonists. Steric limitations for the substituent in position 2” (J Med Chem, 1991) can be followed below.

Assay [1] concerns Cavia porcellus. Put plainly: In vivo inhibition against PAF-induced bronchoconstriction in guinea pig at 1 mg/kg dose upon peroral administration after […] pre-treatment time. Type of assay: functional. Conditions: route oral.
Assay [2] deals with Cavia porcellus. Description: In vivo inhibitory dose against PAF-induced bronchoconstriction in guinea pig upon intravenous administration after one-minute pre-treatment time. The following applies: read-out: ID50 (the source's name). Type of assay: functional.
The subject of assay [3] is Cavia porcellus. Description: In vivo inhibitory dose against PAF-induced bronchoconstriction in guinea pig upon peroral administration after […] pretreatment time. The following applies: po, read-out: ID50 (the source's name). Type of assay: functional.
The subject of assay [4] is Cavia porcellus. Description: In vivo inhibitory dose against PAF-induced bronchoconstriction in guinea pig upon intravenous administration after one-minute pretreatment time; IA=Inactive. It is filed as functional, organism-based.
Assay [5] in a line: In vitro for platelet activating factor receptor antagonist activity in a binding assay using washed whole dog platelets.

The structures appear in SMILES notation. The source made the active and inactive calls. The rule behind the calls is not given here.

With `Cc1nnc2n1-c1sc(C#Cc3ccc(CC(C)C)cc3)cc1C(c1ccccc1Cl)=NC2`, in assay [1], the inhibition in vivo at 1 mg/kg came to 2%. Moreover, the ED50 in assay [2] was 0.3 mg/kg.

`CCCCc1ccc(/C=C\c2cc3c(s2)-n2c(C)nnc2CN=C3c2ccccc2Cl)cc1`: the inhibition in vivo at 1 mg/kg in assay [1] stood at 93%. Also, the figures for the ED50 in assay [2] and in assay [3] were 0.0004 mg/kg and 0.35 mg/kg, respectively.

For the compound `Cc1cc(C#Cc2cc3c(s2)-n2c(C)nnc2CN=C3c2ccccc2Cl)cc2c1OC(C)(C)C2`, in assay [4], the ID50 result was “inactive”.

`Cc1nnc2n1-c1sc(C#Cc3ccccc3)cc1C(c1ccccc1Cl)=NC2`: the inhibition in vivo at 1 mg/kg in assay [1] stood at 6%. The ED50 in assay [2] was 3 mg/kg.

Turning to `Cc1nnc2n1-c1sc(-c3cc(O)[nH]n3)cc1C(c1ccccc1Cl)=NC2`, in assay [4], the ID50 result was “inactive”.

Consider `Cc1nnc2n1-c1sc(I)cc1C(c1ccccc1Cl)=NC2`, for which, in assay [1], the inhibition in vivo at 1 mg/kg worked out at 4%. In assay [2], the ED50 is 0.2 mg/kg. The same compound came in with an IC50 in assay [5] of 370 nM.

Consider `Cc1nnc2n1-c1sc(C#CC(=O)N3CCOCC3)cc1C(c1ccccc1Cl)=NC2`, for which the inhibition in vivo at 1 mg/kg in assay [1] was 16%. In addition, the ED50 in assay [2] amounted to 0.5 mg/kg.

For the compound `Cc1cc(CCc2cc3c(s2)-n2c(C)nnc2CN=C3c2ccccc2Cl)cc2c1OC(C)(C)C2`, the inhibition in vivo at 1 mg/kg in assay [1] amounted to 96%. In addition, the ED50 in assay [2] was determined as 0.01 mg/kg; in assay [3], 0.3 mg/kg.

`Cc1nnc2n1-c1sc(C#C[Si](C)(C)C)cc1C(c1ccccc1Cl)=NC2`: the inhibition in vivo at 1 mg/kg in assay [1] came to 28%. Moreover, the ED50 in assay [2] was determined as 0.3 mg/kg.

For the compound `Cc1nnc2n1-c1sc(C#CCO)cc1C(c1ccccc1Cl)=NC2`, the inhibition in vivo at 1 mg/kg in assay [1] amounted to 20%. For the same compound, the ED50 in assay [2] came to 0.02 mg/kg.

For the compound `Cc1nnc2n1-c1sc(C#Cc3ccc4c(c3)CCO4)cc1C(c1ccccc1Cl)=NC2`, the inhibition in vivo at 1 mg/kg in assay [1] is 7%. For the same compound, the ED50 in assay [2] turned out to be 0.2 mg/kg.

Regarding `Cc1nnc2n1-c1sc(CCc3ccc4c(c3)CCC4)cc1C(c1ccccc1Cl)=NC2`, the inhibition in vivo at 1 mg/kg in assay [1] was 99%. The figures for the ED50 in assay [2] and in assay [3] were 0.04 mg/kg and 0.03 mg/kg, respectively.

In the case of `Cc1nnc2n1-c1sc(/C=C\c3ccc(CC(C)C)cc3)cc1C(c1ccccc1Cl)=NC2`, in assay [1], the inhibition in vivo at 1 mg/kg stood at 99%. The values for the ED50 in assay [2] and in assay [3] were 0.004 mg/kg and 0.03 mg/kg, respectively.

Take `Cc1nnc2n1-c1sc(C#Cc3ccc(-c4ccccn4)s3)cc1C(c1ccccc1Cl)=NC2`: in assay [1], the inhibition in vivo at 1 mg/kg was 93%. Also, the ED50 in assay [2] was 0.003 mg/kg; in assay [3], 0.08 mg/kg.

For `CCCCc1ccc(C#Cc2cc3c(s2)-n2c(C)nnc2CN=C3c2ccccc2Cl)cc1`, the inhibition in vivo at 1 mg/kg in assay [1] was 6%. Besides, in assay [2], the ED50 turned out to be 0.2 mg/kg.

`Cc1nnc2n1-c1sc(C#Cc3ccc(C4CCCCC4)cc3)cc1C(c1ccccc1Cl)=NC2`: the inhibition in vivo at 1 mg/kg in assay [1] was 22%. For the same compound, the ED50 in assay [2] was 0.3 mg/kg.

For `Cc1nnc2n1-c1sc(/C=C\c3ccc4c(c3)CCC4)cc1C(c1ccccc1Cl)=NC2`, in assay [1], the inhibition in vivo at 1 mg/kg is 58%. The ED50 in assay [2] came out at 0.03 mg/kg; in assay [3], 0.7 mg/kg.

With `Cc1nnc2n1-c1sc(/C=C/C(=O)N3CCOCC3)cc1C(c1ccccc1Cl)=NC2`, the inhibition in vivo at 1 mg/kg in assay [1] worked out at 27%. Besides, in assay [2], the ED50 was determined as 0.4 mg/kg.

Regarding `Cc1nnc2n1-c1sc(CCc3ccc(-c4ccccn4)s3)cc1C(c1ccccc1Cl)=NC2`, in assay [1], the inhibition in vivo at 1 mg/kg was determined as 89%. For the same compound, the figures for the ED50 in assay [2] and in assay [3] were 0.003 mg/kg and 0.4 mg/kg, respectively.

For `Cc1nnc2n1-c1sc(CCc3ccc(C4CCCCC4)cc3)cc1C(c1ccccc1Cl)=NC2`, the inhibition in vivo at 1 mg/kg in assay [1] was found to be 68%. In addition, the ED50 came to 0.005 mg/kg in assay [2] and 0.4 mg/kg in assay [3].

On to `Cc1nnc2n1-c1sc(/C=C\c3ccc(C4CCCCC4)cc3)cc1C(c1ccccc1Cl)=NC2`, for which the inhibition in vivo at 1 mg/kg in assay [1] amounted to 85%. Besides, the ED50 in assay [2] was determined as 0.03 mg/kg; in assay [3], 0.4 mg/kg.

For `Cc1nnc2n1-c1sc(-c3[nH]nnc3C(=O)N3CCOCC3)cc1C(c1ccccc1Cl)=NC2`, the ID50 result in assay [4] was “inactive”.

Regarding `Cc1nnc2n1-c1sc(/C=C\C(=O)N3CCOCC3)cc1C(c1ccccc1Cl)=NC2`, in assay [1], the inhibition in vivo at 1 mg/kg was 20%. In assay [2], the ED50 worked out at 0.06 mg/kg.

Regarding `Cc1nnc2n1-c1sc(C#Cc3ccccn3)cc1C(c1ccccc1Cl)=NC2`, the inhibition in vivo at 1 mg/kg in assay [1] stood at 5%. For the same compound, the ED50 in assay [2] came to 0.06 mg/kg.

On to `Cc1nnc2n1-c1sc(/C(CC(=O)N3CCOCC3)=N\N)cc1C(c1ccccc1Cl)=NC2`, for which the inhibition in vivo at 1 mg/kg in assay [1] was 12%. Also, the ED50 in assay [2] was 0.5 mg/kg.

`Cc1nnc2n1-c1sc(C#Cc3ccc4c(c3)CCC4)cc1C(c1ccccc1Cl)=NC2`: in assay [1], the inhibition in vivo at 1 mg/kg worked out at 20%. Also, the ED50 in assay [2] turned out to be 0.2 mg/kg.

On to `Cc1nnc2n1-c1sc(CCC(=O)N3CCOCC3)cc1C(c1ccccc1Cl)=NC2` [APAFANT], for which the inhibition in vivo at 1 mg/kg in assay [1] was found to be 42%. Also, the values for the ED50 in assay [2] and in assay [3] were 0.03 mg/kg and 1.2 mg/kg, respectively.

For the compound `C#Cc1cc2c(s1)-n1c(C)nnc1CN=C2c1ccccc1Cl`, the inhibition in vivo at 1 mg/kg in assay [1] was 9%. For the same compound, in assay [2], the ED50 amounted to 0.02 mg/kg.

Turning to `Cc1nnc2n1-c1sc(C#Cc3cccc4ccccc34)cc1C(c1ccccc1Cl)=NC2`, the inhibition in vivo at 1 mg/kg in assay [1] amounted to 14%. The ED50 in assay [2] was 0.03 mg/kg.

Consider `Cc1nnc2n1-c1sc(CCc3ccc(CC(C)C)cc3)cc1C(c1ccccc1Cl)=NC2`, for which, in assay [1], the inhibition in vivo at 1 mg/kg came out at 99%. Also, the ED50 was determined as 0.002 mg/kg in assay [2] and 0.03 mg/kg in assay [3].

Regarding `Cc1nnc2n1-c1sc(Br)cc1C(c1ccccc1Cl)=NC2` [BROTIZOLAM], in assay [1], the inhibition in vivo at 1 mg/kg was determined as 11%. Also, the ED50 in assay [2] worked out at 0.5 mg/kg.

Regarding `Cc1nnc2n1-c1sc(CCc3ccc(-n4ccnc4)cc3)cc1C(c1ccccc1Cl)=NC2`, the inhibition in vivo at 1 mg/kg in assay [1] stood at 95%. The values for the ED50 in assay [2] and in assay [3] were 0.003 mg/kg and 0.4 mg/kg, respectively.

For the compound `CCCCc1ccc(CCc2cc3c(s2)-n2c(C)nnc2CN=C3c2ccccc2Cl)cc1`, the inhibition in vivo at 1 mg/kg in assay [1] was found to be 98%. Also, the ED50 in assay [2] turned out to be 0.003 mg/kg; in assay [3], 0.2 mg/kg.

For `Cc1nnc2n1-c1sc(CCc3ccc4c(c3)CCO4)cc1C(c1ccccc1Cl)=NC2`, the inhibition in vivo at 1 mg/kg in assay [1] was determined as 44%. The ED50 in assay [2] is 0.003 mg/kg.

As to `Cc1nnc2n1-c1sc(/C=C\c3ccccn3)cc1C(c1ccccc1Cl)=NC2`, the inhibition in vivo at 1 mg/kg in assay [1] came to 20%. The ED50 in assay [2] came to 0.05 mg/kg.
